System: melan-a cells
Assay: Melanin assay in cultured murine melanocytes (melan-a)
Type: cell-based
Conditions: 72 hours of incubation
Method: The Spectrum Collection library consisting of 2000 drug compounds or natural products represents a source for the identification of compounds useful in the present invention. The library may be screened to identify novel pigmentation inhibitors in cultured murine melanocytes (melan-a). Compounds are dissolved in dimethylsulfoxide (DMSO) to a final concentration of 10 mM. Screening is performed with cultured melanocytes in 24-well plates followed by melanin assay (see below). A minimum change of 50% in melanin formation is established as significant for a pigmentation inhibitor. DMSO may be used as a negative control and the widely used depigmenting agent, hydroquinone, may be used as a positive control on every plate. Primary screening is performed at a final concentration of 1 μM and potential candidates from the primary screening are reconfirmed in duplicate at final concentrations of 1 and 5 μM.
Melan-a cells are plated at 5×10^4 cells per well in 1 ml of culture media in 24-well plates the day before adding the library compounds. All compounds are added at the indicated final concentrations. Cells are harvested after 72 hours of incubation, and the melanin assay is performed.
For further test and mechanism of action studies, the compounds may be purchased from Sigma, MicroSource or other known suppliers. The compounds are dissolved in dimethylsulfoxide (DMSO) to a final concentration of 10 mM, and are tested for their effect on melanin synthesis at the indicated final concentrations.
For the primary and secondary screening, cells were harvested and dissolved in 200 μl of 2N NaOH in 20% DMSO at 70° C. A 180-μl aliquot of the resulting solution was measured for absorbance at 490 nm.
Cells are harvested in extraction buffer (1% Triton X-100, 50 mM Tris, 2 mM EDTA, 150 mM NaCl, pH 7.5) containing a complete protease inhibitor cocktail (Roche). The lysates were centrifuged at 14,000 rpm for 10 minutes at 4° C. BCA protein assay kit (Pierce) was used to measure the protein concentrations of the supernatants, and bovine serum albumin was used as a standard. The remaining pellets were incubated with 100 μl ethanol-ether (1:1) for 10 minutes at room temperature. After removing the ethanol-ether, the pellets were dissolved in 200 μl of 2N NaOH in 20% DMSO at 70° C. A 180-μl aliquot of the resulting solution was measured for absorbance at 490 nm. The melanin contents were normalized to the total amount of protein.
The compounds, their structures, inhibition data expressed as % of control remaining, are set forth in FIG. 1 and are shown in Table 1, below.

| SMILES | % of control melanin remaining after treatment @ 1 μM | % of control melanin remaining after treatment @ 5 μM |
| --- | --- | --- |
| CC(C)=CCc1c2c(c3occ(-c4ccc(O)cc4)c(=O)c3c1O)C=CC(C)(C)O2 [ID 1, Osajin] | 99 % of control | 87 % of control |
| COc1ccc(-c2coc3c4c(c(CC=C(C)C)c(O)c3c2=O)OC(C)(C)C=C4)cc1 [ID 2, Osajin- 4′methyl ester] | 99 % of control | 70 % of control |
| CC(C)=CCc1c2c(c3occ(-c4ccc(O)c(O)c4)c(=O)c3c1O)C=CC(C)(C)O2 [ID 3, Pomiferin] | 53 % of control | – |
| COc1ccc(-c2coc3c4c(c(CC=C(C)C)c(O)c3c2=O)OC(C)(C)C=C4)cc1OC [ID 4, Pomiferin-3′,4′-dimethyl ether] | 80 % of control | 50 % of control |
| CC(C)=CCc1c2c(c(O)c3c(=O)c(-c4ccc(O)cc4)coc13)C=CC(C)(C)O2 [ID 5, Warangalone] | 100 % of control | 78 % of control |
